Laboratory results taken from PMC6471177 (Pharmaceutics, 2019).
Read-outs that look alike come from different tables or passages of the source.

Test: Pharmacokinetics of intravenous docetaxel with oral LC478 in rats
Format: in vivo, Sprague–Dawley rats
Settings: for Vd: read-out: Vss
Experimental: For the intravenous study, rats were divided into three groups according to LC478 doses (0, 30, and 100 mg/kg LC478, respectively). […] To prevent blood clotting, 0.3 mL of 0.9% NaCl-injectable solution containing heparin (20 U/mL) was flushed into each cannula immediately after each blood sampling. […] At this time, each rat was sacrificed by withdrawing blood via a heart puncture, and then the entire gastrointestinal tract (including its contents and feces) was extracted and transferred into a beaker. […] A 100 μL aliquot of the supernatant was collected from each beaker.

[1] = male, Sprague-Dawley, rat, plasma, iv, 20 mg/kg, rats, docetaxel 20 mg/kg intravenous, with 0 mg/kg LC478
[2] = male, Sprague-Dawley, rat, plasma, iv, 20 mg/kg, rats, docetaxel 20 mg/kg intravenous, with 30 mg/kg oral LC478
[3] = male, Sprague-Dawley, rat, plasma, iv, 20 mg/kg, rats, docetaxel 20 mg/kg intravenous, with 100 mg/kg oral LC478
[4] = rats, docetaxel 20 mg/kg intravenous, with 0 mg/kg LC478
[5] = rats, docetaxel 20 mg/kg intravenous, with 30 mg/kg oral LC478
[6] = rats, docetaxel 20 mg/kg intravenous, with 100 mg/kg oral LC478

## CC(=O)O[C@@]12CO[C@@H]1C[C@H](O)[C@@]1(C)C(=O)[C@H](O)C3=C(C)[C@@H](OC(=O)[C@H](O)[C@@H](NC(=O)OC(C)(C)C)c4ccccc4)C[C@@](O)([C@@H](OC(=O)c4ccccc4)[C@H]21)C3(C)C [docetaxel]
Bound over all LC478 groups
  Ae0–24 h: less than 1.56 % of dose
  contribution of CLR to CL: less than 1.56%
Intravenous docetaxel, 100 mg/kg LC478 vs 0 mg/kg LC478
  Ae0–24 h smaller by: 31.1%
Intravenous docetaxel, 100 mg/kg LC478 vs 30 mg/kg LC478
  Ae0–24 h smaller by: 37.2%
Intravenous docetaxel, 100 mg/kg LC478 vs without LC478
  CLR slower by: 40%
Intravenous docetaxel, bound over all LC478 groups
  GI24 h: less than 1.76 % of the intravenous dose
[1]
  AUC(0-inf): 4420 ng·h/mL
  AUC(0-t): 4220 ng·h/mL
  CL renal: 1.13 ± 0.431 mL/min/kg
  MRT: 57.9 min
  clearance: 78.4 ± 13.1 mL/min/kg
  Vd: 4.57 ± 1.03 L/kg
[2]
  AUC(0-inf): 5050 ng·h/mL
  AUC(0-t): 4830 ng·h/mL
  CL renal: 1.06 ± 0.235 mL/min/kg
  MRT: 58 min
  clearance: 67.9 ± 11.7 mL/min/kg
  Vd: 4.02 ± 1.36 L/kg
male, Sprague-Dawley, rat, plasma, iv, 20 mg/kg, rats, docetaxel 20 mg/kg intravenous, with 30 mg/kg oral LC478, read-out: Terminal half-life
  half-life: 144 ± 37.6 min
[3]
  AUC(0-inf): 4580 ng·h/mL
  AUC(0-t): 4470 ng·h/mL
  CL renal: 0.678 ± 0.253 mL/min/kg
  MRT: 67.1 min
  clearance: 70.4 ± 9.1 mL/min/kg
  Vd: 4.91 ± 1.44 L/kg
[4]
  Ae0–24 h: 1.42 ± 0.418 % of dose
  CLNR: 77.2 ± 12.8 mL/min/kg
  GI24 h: 0.881 ± 0.411 % of dose
[5]
  Ae0–24 h: 1.56 ± 0.129 % of dose
  CLNR: 66.8 ± 11.4 mL/min/kg
  Frel: 114%
  GI24 h: 1.01 ± 0.731 % of dose
[6]
  Ae0–24 h: 0.979 ± 0.365 % of dose
  CLNR: 69.7 ± 9.13 mL/min/kg
  Frel: 104%
  GI24 h: 1.76 ± 0.958 % of dose
